{"source": "ChEMBL document CHEMBL1138221", "about": "“Synthesis and evaluation of multisubstrate bicyclic pyrimidine nucleoside inhibitors of human thymidine phosphorylase” (J Med Chem, 2006)", "assay": "Stability in acidic buffer at pH 1.0 in 37 degC", "assay_type": "physicochemical", "conditions": "for Stability: buffer", "data": [{"smiles": "Cc1cn([C@@H]2O[C@H](CO)[C@H]3O[C@@H](CP(=O)(O)O)O[C@H]32)c(=O)[nH]c1=O", "values": [{"measurement": "half-life", "setting": "acidic buffer", "value": 98, "unit": "h"}]}, {"smiles": "Cc1cn([C@@H]2O[C@H](CO)[C@H]3O[C@@H](CP(=O)(O)O)C[C@H]32)c(=O)[nH]c1=O", "values": [{"measurement": "Stability", "value": "Stable"}]}, {"smiles": "Cc1cn([C@@H]2O[C@H](CO)[C@H]3C[C@@H](CP(=O)(O)O)O[C@H]32)c(=O)[nH]c1=O", "values": [{"measurement": "Stability", "value": "Stable"}]}, {"smiles": "Cc1cn([C@@H]2O[C@H](CO)[C@H]3C[C@H](CP(=O)(O)O)O[C@H]32)c(=O)[nH]c1=O", "values": [{"measurement": "Stability", "value": "Stable"}]}]}
